Measurements taken from PubChem BioAssay (NCI).
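Values below derive from 48-hour exposures of cells grown in 96-well plates, with endpoints linearly interpolated between the two concentrations bracketing the appropriate inhibition level. GI50 = concentration required for 50% inhibition of growth. At the TGI there is no net growth.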

Assays:
Test in all cases: NCI-60 cell line screen, 48 h
A498 renal = test system: A498 renal
CCRF-CEM leukemia = test system: CCRF-CEM leukemia
MDA-MB-231 breast = test system: MDA-MB-231 breast
786-0 renal = test system: 786-0 renal
SK-OV-3 ovarian = test system: SK-OV-3 ovarian
SK-MEL-28 melanoma = test system: SK-MEL-28 melanoma
OVCAR-8 ovarian = test system: OVCAR-8 ovarian
HCT-15 colon = test system: HCT-15 colon
KM12 colon = test system: KM12 colon
DU-145 prostate = test system: DU-145 prostate

| Compound | GI50 (A498 renal) [µM] | TGI (A498 renal) [µM] | GI50 (CCRF-CEM leukemia) [µM] | TGI (CCRF-CEM leukemia) [µM] | GI50 (MDA-MB-231 breast) [µM] | TGI (MDA-MB-231 breast) [µM] | GI50 (786-0 renal) [µM] | TGI (786-0 renal) [µM] | GI50 (SK-OV-3 ovarian) [µM] | TGI (SK-OV-3 ovarian) [µM] | GI50 (SK-MEL-28 melanoma) [µM] | TGI (SK-MEL-28 melanoma) [µM] | GI50 (OVCAR-8 ovarian) [µM] | TGI (OVCAR-8 ovarian) [µM] | GI50 (HCT-15 colon) [µM] | TGI (HCT-15 colon) [µM] | GI50 (KM12 colon) [µM] | TGI (KM12 colon) [µM] | GI50 (DU-145 prostate) [µM] | TGI (DU-145 prostate) [µM] |
| --- | --- | --- | --- | --- | --- | --- | --- | --- | --- | --- | --- | --- | --- | --- | --- | --- | --- | --- | --- | --- |
| CN1CCN(c2ccc(NC3=CC(=O)c4ncncc4C3=O)cc2)CC1 | 1.42 | 2.8 | 0.331 | > 100 | 0.25 | 0.766 | 0.248 | 0.645 | 1.63 | 3.16 | 1.46 | 3.08 | 0.323 | 1.57 | 0.343 | 1.44 | 1.67 | 4.35 | 0.639 | 1.88 |
| COC(=O)CC1=C(C)/C(=C/c2[nH]c(-c3ccc[nH]3)cc2OC)N=C1C | 1.02 | 5.39 | 0.0768 | 5.34 | 0.0681 | 0.994 | 0.191 | 0.723 | 0.581 | 4.19 | 0.456 | 2.53 | 0.236 | 1.02 | 0.0992 | 0.894 | 0.118 | 2.12 | 0.315 | 12.8 |
| CN(C)c1ccc2[nH]c3c(C(N)=O)cc(=O)c(=O)c=3oc2c1 | 2.68 | 9.5 | 0.472 | > 100 | 1.7 | 8.67 | 3.19 | 22.2 | 3.54 | > 100 | 4.2 | > 100 | 1.05 | > 100 | 0.766 | > 100 | 3.33 | > 100 | 4.6 | > 100 |
| CCC(c1ccccc1)c1cc(C(C)(C)C)cc(C(C)(C)C)c1O (stereo not drawn) |  | 33.9 |  |  |  | 31.9 |  | 29 |  | 28.1 |  | 32.5 |  | 31.1 |  | 30.5 |  | 32.3 |  | 33.2 |
| CSc1nc2c(c(=O)n1C)C(c1ccccc1)C1=C(N2)/C(=C/c2ccccc2)CCC1 (stereo not drawn) | 16.8 | 88.4 | 4.62 | > 100 | 17.4 | > 100 | 11.7 | 56.4 | 25.1 | 78.7 | > 100 | > 100 | 3.97 | > 100 | 4.1 | > 100 | 18.2 | > 100 | 8.02 | > 100 |
| C(=N\Nc1ccc2ccccc2n1)/c1ccccn1 | 0.561 | 15.4 | 0.371 | > 100 | 0.695 | > 100 | 0.317 |  | 0.537 | > 40.5 | 1.96 | > 100 | 0.463 | > 100 | 0.377 | > 100 | 0.458 | 16.2 | 0.374 | > 37.7 |
| CC/C=C\C[C@H]1C/C=C2/C(=O)C(Cl)=C[C@@H]2C/C=C\CCCC(=O)O1 | 0.56 | 1.43 | 0.143 | 2.64 | 0.733 | 4.61 | 0.521 | 1.19 | 1.04 | 3.49 | 0.46 | 1.15 | 0.143 | 2.68 | 0.109 | 0.72 | 0.403 | 1.07 | 0.517 | 1.85 |
| COc1ccc(-c2[nH]ncc2Nc2cc(OC)c(OC)c(OC)c2)cc1 | 2.98 | > 57.4 | 1.5 | 19.4 | 3.34 | > 100 | 6.2 | > 65.4 | 3.09 | > 77.8 | 2.57 | > 100 | 6.36 | > 100 | 0.702 | > 100 | 0.63 | 22.7 | 4 | 64.1 |
| O=C(CI)Nc1ccc(Br)cc1 | 16.3 | 33.1 | 1.75 | > 100 | 2.6 | 5.51 | 2.23 | 4.62 | 1.99 | 3.99 | 3.82 | 11.3 | 2.46 | 5.95 | 2.09 | 5.13 | 2.9 | 10.7 | 1.77 | 3.18 |
| N=C(CC(=O)Nc1ccccn1)c1ccccc1 |  | > 100 |  | > 100 |  | > 100 |  | > 100 |  | > 100 |  | > 100 |  | > 100 |  | > 100 |  | > 100 |  | > 100 |
| O=C1NC(=NCCc2ccc(Br)cc2)S/C1=C\c1ccc2ncccc2c1 | 6.29 | > 25 | 21.1 | > 25 | > 25 | > 25 | > 25 | > 25 | > 25 | > 25 | > 25 | > 25 | > 25 | > 25 | > 22.3 | > 25 | 24.6 | > 25 | > 25 | > 25 |
| O=C1/C(=C/c2ccc(C(F)(F)F)cc2)COc2ccc(O)c(O)c21 | 2.11 | 4.16 | 0.335 | 2.25 | 1.18 | 2.65 | 1.32 | 2.85 | 2.89 | 10.8 | 1.72 | 3.15 | 0.846 | 2.96 | 0.444 | 1.93 | 1.7 | 3.84 | 1.6 | 3.19 |
| CCS(=O)(=O)c1ccc(OC)c(Nc2ncc(-c3cccc(F)c3)o2)c1 | 0.34 | > 25 | > 25 | > 25 | > 25 | > 25 | > 25 | > 25 | > 25 | > 25 | > 25 | > 25 | > 25 | > 25 | > 25 | > 25 | 0.649 | > 25 | > 25 | > 25 |
